Experimental data reported in PMC7377361, “Pressurized DNA state inside herpes capsids—A novel antiviral target” (PLoS Pathogens, 2020).
Where no end group is shown, it is not given here.

Assays:
[1] = system: HSV-1 C-capsids; test: Reconstituted nuclei-capsid MOA-assay, ultrathin-sectioning EM of DNA ejection; assay type: biochemical; settings: 37°C, 40 min; DAB-Am-4 58.5 μM, bPEI 600 39 μM, Arg^5+ 25 μM (N/P 1.5)
Description: Once the integrity and functionality of the reconstituted nuclei-capsid system for MOA testing was established, we applied a stringent test of the antiviral activity of each compound. We used ultrathin-sectioning EM to visualize DNA injection from HSV-1 capsids into isolated nuclei with DAB-Am-4 (58.5 μM), bPEI 600 (39 μM), and Arg^5+(25 μM). Compound concentrations corresponded to an N/P ratio of 1.5 (scaled proportionally to virus concentration, as described above) (Fig 4). Purified DNA-filled C-capsids were incubated with isolated rat liver nuclei in the presence of cell cytosol supplemented with ATP regeneration system for 40 min at 37°C, providing optimum conditions, found to maximize capsid binding to NPCs with subsequent DNA ejection. […] Only capsids that appeared bound to the nuclear membrane are included in the statistics (more than 790 nuclei-bound capsids and over 140 nuclei were counted for each sample analysis, providing good statistics). [Note that micrographs shown in Raw 1 of Fig 4 are lower magnification images (13,500X) which show an area around a nuclear membrane with empty and DNA-filled capsids. For our analysis of capsids bound to NPCs, we only used higher magnification images (25,000X) shown in Raw 2, to identify capsids that were associated with visible NPCs. A larger collection of these EM-micrographs at magnification 25,000X with and without different compounds added is shown in a supporting raw data file (S5 Fig).]
We built an in vitro viral HSV-1 DNA translocation system in which the HSV-1 genome was released into nucleoplasm in a homogenate solution mimicking the cytoplasm environment; see details in previously described protocol in ref.[41]. In a typical system, rat liver cell nuclei were incubated with C-capsids (HSV-1 or GFP-labeled HSV-1) in solution containing: (i) cytosol, (ii) BSA, (iii) ATP regeneration system; see details in ref.[41]. The system was incubated at 37°C for 40 min, sufficient for capsid binding to nuclei. For inhibition studies, wheat germ agglutinin (WGA) was preincubated with the nuclei prior to addition of C-capsids. For compound-induced inhibition of DNA ejection studies, C-capsids were preincubated with the polyvalent cationic agents at the concentrations described in the main text before adding capsids to nuclei.
After incubation of nuclei with C-capsids, the samples were washed once with CBB buffer (1,000 rpm for 10 min in a microcentrifuge). The supernatant was then removed and replaced with a fixative (2.5% EM-grade glutaraldehyde and 2.0% EM-grade formaldehyde in 0.1 M sodium cacodylate buffer, pH 7.4) for 3 hours at 4 °C. The fixative was then removed, replaced briefly with buffer, and then replaced with 1% osmium tetroxide in buffer for 90 minutes. Each sample was then subjected to 10-minute buffer rinse, after which it was placed in 1% aqueous uranyl acetate and left overnight. The next day, each sample was dehydrated via a graded ethanol series, culminating in propylene oxide. Following a graded propylene oxide; Epon812 series, the nuclear pellets were embedded in Epon812 prior to cutting. Ultrathin (ca. 90 nm) Epon sections on grids were stained with 1% aqueous uranyl acetate and lead citrate. After the grids dried, areas of interest were imaged at 120 kV, spot 3 using a Tietz 2kx2k camera mounted on a Philips/FEI (now Thermo Fisher FEI) CM200 transmission electron microscope.

[2] = system: GFP-labeled HSV-1 virions; test: Binding of GFP-HSV-1 virions to the cell surface (confocal FM); assay type: cell-based; settings: compound added to cell culture, then GFP-labeled HSV-1 virions
Excerpt: This likely occurs due to compounds’ high positive charge leading to electrostatic binding of polycations to negatively charged glycoprotein receptors on the cell membrane, such as heparansulfate proteoglycans (HSPG)[75]. Optimizing compound permeability into cells can be facilitated by e.g. prodrug approach, lipid vesicle delivery, and nanoparticle delivery, as well as other pathways. Compound permeability will be optimized in the future. […] Furthermore, choosing a reconstituted nuclei system for the MOA-assay (as opposed to infecting a cell culture) provides the benefit of isolating the effect of the compound on the single step of viral DNA ejection while avoiding interference from other processes occurring within the cell during viral replication.
Vero cell monolayers grown on chamber slides (Lab-Tek) were infected with a GFP-expressing HSV-1(K26GFP) at a MOI of 0.1 PFU per cell. Vero cells were also incubated with the same virus that was previously treated with different concentrations of the compounds to condense the viral DNA. The concentration of the compounds was calculated as described above. […]
Supplementary file ppat.1008604.s003.pdf: S2 Fig Effect of the compounds on the binding of HSV-1 virions to the cell surface during infection. […] Cells were fixed at 2 hpi and assessed by the presence of a GFP virus signal (green). […]

| Compound | Capsids bound to NPC: DNA-filled capsids [1] [%] | Capsids bound to NPC: DNA-filled capsids (count) [1] | Capsids bound to NPC: Empty capsids [1] [%] | Capsids bound to NPC: Empty capsids (count) [1] | virus adsorption to the cell [2] |
| --- | --- | --- | --- | --- | --- |
| NCCCN(CCCN)CCCCN(CCCN)CCCN [DAB-Am-4] | 60 | 479 | 40 | 313 | prevents virus adsorption to the cell |
| RRRRR [Arg^5+] | 50 | 399 | 50 | 398 | prevents virus adsorption to the cell |
